Calls of active or inactive are those of the source. A value given as a limit tells only on which side of the number the result lay.

In one assay the target is Aurora kinase A (Homo sapiens, UniProt O14965). The format is functional.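 Also: value from the Navigating the Kinome kinase panel profiling, panel entry STK6.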
Assay [1] addresses Cyclin-dependent kinase 19 (Homo sapiens, UniProt Q9BWU1). Nature of the assay: Navigating the Kinome. Panel member name: CDC2L6. The format is functional.
A short description of assay [2]: AlphaScreen signal interference compounds, dose response, artefact control for ARNT-TACC3 interaction inhibitor project, biochemical, luminescence, cherry-pick (AID 651705).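 Also: AlphaScreen bead proximity signal that flags compounds interfering with the detection technology; potency reflects signal decrease which marks the compound as an assay artifact.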 In kind it is functional. (Alpha assays give light when donor and acceptor beads are brought close together.)
Assay [3] deals with T1, High affinity choline transporter 1 (Homo sapiens, UniProt Q9GZV3).
T1 sequence (Q9GZV3 whole entry): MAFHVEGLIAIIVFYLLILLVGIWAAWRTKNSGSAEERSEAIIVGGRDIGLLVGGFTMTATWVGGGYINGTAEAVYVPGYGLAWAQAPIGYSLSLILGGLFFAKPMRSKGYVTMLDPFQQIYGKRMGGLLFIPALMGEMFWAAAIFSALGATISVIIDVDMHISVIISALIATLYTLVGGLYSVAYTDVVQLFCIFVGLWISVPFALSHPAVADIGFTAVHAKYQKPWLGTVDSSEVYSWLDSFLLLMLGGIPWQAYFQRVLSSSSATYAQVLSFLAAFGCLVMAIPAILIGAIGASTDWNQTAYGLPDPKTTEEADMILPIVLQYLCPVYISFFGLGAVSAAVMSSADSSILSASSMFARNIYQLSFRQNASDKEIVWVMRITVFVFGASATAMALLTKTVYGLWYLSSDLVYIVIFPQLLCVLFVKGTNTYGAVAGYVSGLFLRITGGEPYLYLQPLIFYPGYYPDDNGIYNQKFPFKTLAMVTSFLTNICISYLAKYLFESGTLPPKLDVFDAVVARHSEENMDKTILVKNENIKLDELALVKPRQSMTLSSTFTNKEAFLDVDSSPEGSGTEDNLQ
Nature of the assay: inhibitors of CHT choline uptake, dose response, cell-based, 3H-choline uptake, CHT LV-AA trafficking mutant, CRC (AID 602208). In kind it is functional.

The target of assay [4] is T1, High affinity choline transporter 1. In words: CHT inhibitors, dose response, cell-based, 10-point CRC, membrane potential dye (AID 588401).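 Also: membrane potential dye fluorescence of choline-evoked depolarization via CHT.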 In kind it is functional.
For assay [5] the target is unchanged. Nature of the assay: CHT inhibitors, dose response, cell-based, 5-point CRC, membrane potential dye (AID 504840). In kind it is functional.
The target of assay [6] is T2, Mitochondrial peptide methionine sulfoxide reductase (Bos taurus, UniProt P54149).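 Also: absorbance read-out, biochemical high-throughput dose-response screen for MsrA inhibitors, confirmatory; recombinant bovine MsrA coupled to E. coli TrxB with NADPH and selenocystamine; potency is for inhibitors of MsrA activity on DMSO substrate.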
T2 sequence (P54149 whole entry): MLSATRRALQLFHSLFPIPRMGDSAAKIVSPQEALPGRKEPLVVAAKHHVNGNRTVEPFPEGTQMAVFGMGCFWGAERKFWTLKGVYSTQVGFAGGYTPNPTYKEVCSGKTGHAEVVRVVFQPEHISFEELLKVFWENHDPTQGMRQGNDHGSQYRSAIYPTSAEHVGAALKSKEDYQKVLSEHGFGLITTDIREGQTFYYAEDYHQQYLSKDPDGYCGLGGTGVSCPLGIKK
In kind it is functional.

The target of assay [7] is Adenosylmethionine-8-amino-7-oxononanoate aminotransferase (Mycobacterium tuberculosis, UniProt P9WQ81). Nature of the assay: Mycobacterium tuberculosis BioA enzyme inhibitor Measured in Biochemical System Using Plate Reader - 2163-02_Inhibitor_Dose_CherryPick_Activity. In kind it is functional, Mycobacterium tuberculosis UT205.
Chain of Adenosylmethionine-8-amino-7-oxononanoate aminotransferase (P9WQ81 whole entry): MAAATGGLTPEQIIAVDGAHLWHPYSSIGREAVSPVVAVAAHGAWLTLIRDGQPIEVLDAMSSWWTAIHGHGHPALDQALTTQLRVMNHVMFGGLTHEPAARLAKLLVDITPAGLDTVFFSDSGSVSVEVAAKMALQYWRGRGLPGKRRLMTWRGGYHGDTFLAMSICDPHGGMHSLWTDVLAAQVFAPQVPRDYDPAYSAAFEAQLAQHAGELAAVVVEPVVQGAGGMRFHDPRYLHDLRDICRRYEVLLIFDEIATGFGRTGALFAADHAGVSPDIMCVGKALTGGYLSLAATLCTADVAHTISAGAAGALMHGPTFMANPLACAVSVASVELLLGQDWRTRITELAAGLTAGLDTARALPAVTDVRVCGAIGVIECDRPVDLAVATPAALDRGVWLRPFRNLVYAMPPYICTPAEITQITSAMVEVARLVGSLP
Assay [8] has as its target Ras and Rab interactor 1/Tyrosine-protein kinase ABL1 (Homo sapiens, UniProt P00519+Q13671). In kind it is functional.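 Also: biochemical TR-FRET dose-response test measuring inhibition of binding between Rin1 and Abl proteins.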
Assay [9] concerns the target T3, Interleukin-8 (Homo sapiens, UniProt P10145). In words: Dose Response confirmation of uHTS small molecule hits for cystic fibrosis induced NFkb Inhibitors in a PAF-induced IL8 counterscreen. In kind it is functional. The settings on record: read-out: IC50_Mean.
Assay [10] has as its target T3, Interleukin-8. In words: Dose Response confirmation of uHTS small molecule hits for cystic fibrosis induced NFkb Inhibitors in a TNFa-induced IL8 counterscreen. The conditions noted are these: read-out: IC50_Mean. In kind it is functional. (In general: The purpose of a counterscreen is to sort out artefacts and off-target activity.)
In assay [11] the target is T4, Caspase-3 (Homo sapiens, UniProt P42574).
T4 sequence (P42574 whole entry): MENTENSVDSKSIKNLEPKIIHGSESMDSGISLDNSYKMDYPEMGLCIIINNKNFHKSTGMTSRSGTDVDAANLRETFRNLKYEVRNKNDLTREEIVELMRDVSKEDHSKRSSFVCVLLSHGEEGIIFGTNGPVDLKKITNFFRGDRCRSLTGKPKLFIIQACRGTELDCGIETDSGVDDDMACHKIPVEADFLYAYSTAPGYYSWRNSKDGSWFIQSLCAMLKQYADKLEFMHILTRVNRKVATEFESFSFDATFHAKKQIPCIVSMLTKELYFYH
In kind it is functional.

For assay [12], the target named is T5, Sentrin-specific protease 8 (Homo sapiens, UniProt Q96LD8).
T5 sequence (Q96LD8 whole entry): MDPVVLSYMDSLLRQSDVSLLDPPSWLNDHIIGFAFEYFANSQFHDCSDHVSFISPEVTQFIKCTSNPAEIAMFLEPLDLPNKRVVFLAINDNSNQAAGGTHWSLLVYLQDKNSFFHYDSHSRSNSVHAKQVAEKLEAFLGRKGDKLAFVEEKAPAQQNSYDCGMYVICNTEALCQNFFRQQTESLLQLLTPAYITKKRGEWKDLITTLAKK
In kind it is functional.

Assay [13] concerns the target T6, Oxysterols receptor LXR-beta (Homo sapiens, UniProt P55055).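 Also: agonist activity at LXR measured by a cell-based luminescence readout across a dose range, run as a counterscreen for daf-12 agonists; HEK293 cells with Gal4-LXR fusion and GAL4-driven luciferase reporter; potency for activation of Gal4-LXR reporter so compounds are agonists.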
T6 sequence (P55055 whole entry): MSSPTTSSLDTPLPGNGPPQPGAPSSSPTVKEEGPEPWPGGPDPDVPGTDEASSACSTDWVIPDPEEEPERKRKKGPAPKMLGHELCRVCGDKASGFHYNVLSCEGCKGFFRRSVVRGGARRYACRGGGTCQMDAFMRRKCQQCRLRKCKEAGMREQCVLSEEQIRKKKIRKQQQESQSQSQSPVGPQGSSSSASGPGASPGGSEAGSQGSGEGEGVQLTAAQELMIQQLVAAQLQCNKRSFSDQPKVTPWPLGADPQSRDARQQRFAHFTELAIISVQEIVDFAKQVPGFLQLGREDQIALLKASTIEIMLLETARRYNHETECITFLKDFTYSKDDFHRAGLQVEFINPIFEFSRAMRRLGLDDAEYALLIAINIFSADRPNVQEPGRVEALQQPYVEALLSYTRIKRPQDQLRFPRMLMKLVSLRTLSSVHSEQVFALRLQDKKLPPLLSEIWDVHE
The format is functional, cell-based.

The target in assay [14] is T7, Sentrin-specific protease 7 (Homo sapiens, UniProt Q9BQF6).
T7 sequence (Q9BQF6 whole entry): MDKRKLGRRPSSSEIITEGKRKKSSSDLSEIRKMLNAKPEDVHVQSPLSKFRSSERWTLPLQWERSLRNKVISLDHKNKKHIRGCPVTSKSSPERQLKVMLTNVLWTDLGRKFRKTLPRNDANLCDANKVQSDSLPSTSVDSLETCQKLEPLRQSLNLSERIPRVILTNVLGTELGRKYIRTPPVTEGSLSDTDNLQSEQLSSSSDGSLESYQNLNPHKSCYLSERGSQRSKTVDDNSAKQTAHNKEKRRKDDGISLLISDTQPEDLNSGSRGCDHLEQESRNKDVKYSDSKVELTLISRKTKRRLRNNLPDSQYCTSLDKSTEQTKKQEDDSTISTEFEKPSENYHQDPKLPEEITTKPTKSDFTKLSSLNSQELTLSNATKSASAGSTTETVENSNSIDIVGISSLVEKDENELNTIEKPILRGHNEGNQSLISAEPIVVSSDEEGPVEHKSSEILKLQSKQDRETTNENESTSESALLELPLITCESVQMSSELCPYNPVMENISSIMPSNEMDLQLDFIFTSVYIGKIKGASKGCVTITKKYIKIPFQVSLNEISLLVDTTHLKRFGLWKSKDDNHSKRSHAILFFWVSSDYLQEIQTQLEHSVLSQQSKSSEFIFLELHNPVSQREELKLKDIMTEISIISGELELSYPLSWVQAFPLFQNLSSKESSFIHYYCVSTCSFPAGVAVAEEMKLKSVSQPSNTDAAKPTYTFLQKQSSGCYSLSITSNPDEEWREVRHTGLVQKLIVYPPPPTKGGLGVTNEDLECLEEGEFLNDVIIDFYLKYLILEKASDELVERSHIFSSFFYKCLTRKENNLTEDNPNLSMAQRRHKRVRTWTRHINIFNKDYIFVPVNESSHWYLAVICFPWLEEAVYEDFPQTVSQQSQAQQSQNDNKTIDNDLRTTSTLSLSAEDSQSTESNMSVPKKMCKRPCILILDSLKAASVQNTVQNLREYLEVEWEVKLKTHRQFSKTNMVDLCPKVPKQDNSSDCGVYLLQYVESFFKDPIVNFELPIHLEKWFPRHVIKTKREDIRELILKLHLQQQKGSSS
In words: SENP7 protease inhibitors, SAR follow-up, biochemical, luminescence (AID 504497). The format is functional.

The target of assay [15] is T8, Sentrin-specific protease 6 (Homo sapiens, UniProt Q9GZR1).
T8 sequence (Q9GZR1 whole entry): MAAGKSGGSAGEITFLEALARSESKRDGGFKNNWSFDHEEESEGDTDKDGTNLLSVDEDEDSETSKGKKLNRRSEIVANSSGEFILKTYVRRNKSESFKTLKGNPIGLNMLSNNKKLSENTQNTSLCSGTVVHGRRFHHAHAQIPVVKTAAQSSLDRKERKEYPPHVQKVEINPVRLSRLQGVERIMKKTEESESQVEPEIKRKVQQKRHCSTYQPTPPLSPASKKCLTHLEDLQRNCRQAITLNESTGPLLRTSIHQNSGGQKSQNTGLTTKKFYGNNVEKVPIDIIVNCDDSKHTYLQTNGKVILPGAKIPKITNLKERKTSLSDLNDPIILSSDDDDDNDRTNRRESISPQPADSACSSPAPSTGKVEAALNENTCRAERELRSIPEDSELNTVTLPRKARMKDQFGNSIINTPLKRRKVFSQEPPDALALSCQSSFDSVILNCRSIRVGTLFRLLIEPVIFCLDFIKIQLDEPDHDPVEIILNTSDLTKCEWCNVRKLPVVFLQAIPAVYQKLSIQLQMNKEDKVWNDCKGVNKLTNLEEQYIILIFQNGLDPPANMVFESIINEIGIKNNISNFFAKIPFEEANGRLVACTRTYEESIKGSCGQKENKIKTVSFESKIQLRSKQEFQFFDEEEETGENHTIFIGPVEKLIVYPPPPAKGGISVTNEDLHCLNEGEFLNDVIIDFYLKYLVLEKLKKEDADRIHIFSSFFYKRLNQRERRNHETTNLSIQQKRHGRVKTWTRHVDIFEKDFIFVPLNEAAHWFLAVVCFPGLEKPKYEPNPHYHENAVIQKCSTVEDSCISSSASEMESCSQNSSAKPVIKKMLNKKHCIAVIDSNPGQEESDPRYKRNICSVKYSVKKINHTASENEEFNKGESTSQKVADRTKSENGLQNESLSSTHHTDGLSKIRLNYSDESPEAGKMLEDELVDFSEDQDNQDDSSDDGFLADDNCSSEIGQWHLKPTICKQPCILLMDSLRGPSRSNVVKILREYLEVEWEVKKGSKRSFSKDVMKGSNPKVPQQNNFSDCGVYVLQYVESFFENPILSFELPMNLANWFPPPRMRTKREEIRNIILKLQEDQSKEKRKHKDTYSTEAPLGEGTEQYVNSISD
The format is functional.

For assay [16], the target named is T4, Caspase-3. Nature of the assay: SAR Analysis of small molecule inhibitors of Sentrin-specific proteases (SENPs) using a Caspase-3 Selectivity assay. [Related pubchem assays (depositor defined):AID2540, AID2599, AID434973, AID489001]. In kind it is functional.
In assay [17] the target is T8, Sentrin-specific protease 6. In words: SAR Analysis of small molecule inhibitors of Sentrin-specific protease 6 (SENP6) using a Luminescent assay. [Related pubchem assays (depositor defined):AID2582, AID2599]. In kind it is functional.
Assay [18] addresses T5, Sentrin-specific protease 8. Nature of the assay: SENP8 protease inhibitors, SAR follow-up, biochemical, luminescence (AID 504501). The format is functional.
The target in assay [19] is T7, Sentrin-specific protease 7. The format is functional.

T3 sequence (P10145 whole entry): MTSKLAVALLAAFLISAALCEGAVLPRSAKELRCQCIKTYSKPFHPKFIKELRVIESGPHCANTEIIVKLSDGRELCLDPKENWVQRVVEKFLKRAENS
Chain of Cyclin-dependent kinase 19 (Q9BWU1 whole entry): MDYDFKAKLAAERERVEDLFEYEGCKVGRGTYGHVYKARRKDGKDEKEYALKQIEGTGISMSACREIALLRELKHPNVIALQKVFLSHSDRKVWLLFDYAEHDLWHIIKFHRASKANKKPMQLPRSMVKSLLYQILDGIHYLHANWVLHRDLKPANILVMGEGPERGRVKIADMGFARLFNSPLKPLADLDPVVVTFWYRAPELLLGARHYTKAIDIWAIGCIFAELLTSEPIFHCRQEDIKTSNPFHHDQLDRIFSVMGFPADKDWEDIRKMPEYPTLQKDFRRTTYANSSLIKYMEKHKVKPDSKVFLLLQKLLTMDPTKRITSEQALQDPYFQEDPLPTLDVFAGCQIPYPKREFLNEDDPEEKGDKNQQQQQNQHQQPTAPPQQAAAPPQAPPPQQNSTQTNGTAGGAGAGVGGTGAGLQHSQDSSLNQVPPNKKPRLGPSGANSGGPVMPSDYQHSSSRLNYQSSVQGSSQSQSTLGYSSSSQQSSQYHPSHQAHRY
Chain of Aurora kinase A (O14965 whole entry): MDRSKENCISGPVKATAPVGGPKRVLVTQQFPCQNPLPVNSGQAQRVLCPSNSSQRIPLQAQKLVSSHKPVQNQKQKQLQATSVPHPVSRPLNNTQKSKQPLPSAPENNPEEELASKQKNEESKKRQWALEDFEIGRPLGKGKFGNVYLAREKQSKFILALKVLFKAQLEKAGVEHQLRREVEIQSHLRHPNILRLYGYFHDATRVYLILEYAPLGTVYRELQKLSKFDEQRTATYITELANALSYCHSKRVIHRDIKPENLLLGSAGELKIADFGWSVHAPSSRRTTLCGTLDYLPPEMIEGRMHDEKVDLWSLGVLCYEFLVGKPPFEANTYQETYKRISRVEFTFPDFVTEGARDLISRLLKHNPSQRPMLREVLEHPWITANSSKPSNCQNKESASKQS
Chain of Ras and Rab interactor 1/Tyrosine-protein kinase ABL1 (P00519 whole entry): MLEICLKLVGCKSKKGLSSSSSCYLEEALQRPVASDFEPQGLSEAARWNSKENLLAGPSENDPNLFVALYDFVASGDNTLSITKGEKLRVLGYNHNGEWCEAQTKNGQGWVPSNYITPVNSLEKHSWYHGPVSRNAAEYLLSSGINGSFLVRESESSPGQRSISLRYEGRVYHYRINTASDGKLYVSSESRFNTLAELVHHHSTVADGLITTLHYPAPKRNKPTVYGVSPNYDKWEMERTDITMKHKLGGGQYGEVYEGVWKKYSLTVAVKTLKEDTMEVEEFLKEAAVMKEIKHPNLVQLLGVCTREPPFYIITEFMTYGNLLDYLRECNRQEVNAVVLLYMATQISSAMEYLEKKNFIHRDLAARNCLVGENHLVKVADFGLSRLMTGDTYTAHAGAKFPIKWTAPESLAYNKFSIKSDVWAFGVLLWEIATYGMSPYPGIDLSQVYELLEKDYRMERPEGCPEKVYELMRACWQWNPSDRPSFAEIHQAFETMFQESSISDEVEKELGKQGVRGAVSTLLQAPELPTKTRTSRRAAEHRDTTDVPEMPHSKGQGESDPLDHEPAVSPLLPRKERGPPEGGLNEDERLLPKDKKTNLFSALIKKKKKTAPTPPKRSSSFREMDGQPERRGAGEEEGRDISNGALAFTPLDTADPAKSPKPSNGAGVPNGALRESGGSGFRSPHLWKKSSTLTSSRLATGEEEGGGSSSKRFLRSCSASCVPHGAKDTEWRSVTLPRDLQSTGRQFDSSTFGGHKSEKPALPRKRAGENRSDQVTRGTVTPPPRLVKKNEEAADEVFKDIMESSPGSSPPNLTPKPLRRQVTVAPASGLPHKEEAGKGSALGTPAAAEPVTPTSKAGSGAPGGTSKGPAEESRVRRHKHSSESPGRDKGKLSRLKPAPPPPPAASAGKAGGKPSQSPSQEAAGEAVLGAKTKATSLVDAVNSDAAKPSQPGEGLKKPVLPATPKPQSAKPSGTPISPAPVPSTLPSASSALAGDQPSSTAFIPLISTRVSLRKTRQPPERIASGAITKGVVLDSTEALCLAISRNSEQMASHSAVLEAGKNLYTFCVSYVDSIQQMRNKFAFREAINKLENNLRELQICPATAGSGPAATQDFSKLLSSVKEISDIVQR
Chain of Ras and Rab interactor 1/Tyrosine-protein kinase ABL1 (Q13671 whole entry): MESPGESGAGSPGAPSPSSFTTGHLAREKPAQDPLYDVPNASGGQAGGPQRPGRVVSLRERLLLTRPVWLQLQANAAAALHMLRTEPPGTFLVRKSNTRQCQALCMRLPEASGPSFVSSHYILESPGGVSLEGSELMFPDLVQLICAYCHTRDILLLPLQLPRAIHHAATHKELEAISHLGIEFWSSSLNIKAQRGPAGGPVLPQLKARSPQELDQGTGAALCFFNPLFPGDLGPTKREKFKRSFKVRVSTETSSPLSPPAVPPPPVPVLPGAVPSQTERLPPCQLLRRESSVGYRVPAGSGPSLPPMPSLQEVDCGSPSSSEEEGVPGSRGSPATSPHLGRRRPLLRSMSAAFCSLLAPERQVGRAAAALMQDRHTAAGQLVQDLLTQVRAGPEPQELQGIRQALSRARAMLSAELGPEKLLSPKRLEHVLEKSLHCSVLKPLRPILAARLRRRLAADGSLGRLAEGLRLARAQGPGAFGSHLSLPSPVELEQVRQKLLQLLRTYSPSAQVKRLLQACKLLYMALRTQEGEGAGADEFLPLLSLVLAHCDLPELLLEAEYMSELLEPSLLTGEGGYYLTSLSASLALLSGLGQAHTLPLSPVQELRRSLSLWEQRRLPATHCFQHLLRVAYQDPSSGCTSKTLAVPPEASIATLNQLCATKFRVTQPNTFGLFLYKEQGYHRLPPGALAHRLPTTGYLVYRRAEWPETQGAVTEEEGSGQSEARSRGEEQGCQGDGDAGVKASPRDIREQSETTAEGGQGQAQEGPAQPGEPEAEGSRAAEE

Usually Ki stands for a dissociation constant, usually derived from enzyme kinetics or from competition with a known ligand. Take `Cc1ccc(C)c(NC(=O)Nc2ccc(-c3c(C)sc4ncnc(N)c34)cc2)c1`: the inhibition constant Ki at Aurora kinase A was 0.251 µM (active); in [1], > 100 µM (inactive).
The term AC50 denotes the midpoint of the concentration-response curve, whichever way the signal moves. In the case of `O=C(Oc1cccc2cccnc12)c1ccco1`, the half-maximal activity concentration (AC50) in assay [2] was 131 µM (active).
For the compound `CC1CCC(NC(=O)c2cccc(S(=O)(=O)NCc3ccccc3)c2)CC1` (stereo not given), the IC50 in assay [3] was 8.42 µM (active); in [4] it was 3.64 µM (active); in assay [5] it was 4.07 µM (active).
`O=C(O)c1cccc(N/N=C/c2sc(N3CCOCC3)nc2-c2ccccc2)c1`: the IC50 in assay [6] is 155 µM (inactive).
For `COc1ccc(-c2ccc3c(c2)C2CC3CCN2)cc1` (stereo not given), the AC50 in assay [7] was 1.07 µM (active).
For `CC(C)(C)OC(=O)N1CCC(C(=O)Nc2ccc(C(=O)N3CCCCC3)cc2)CC1`, the IC50 in [8] was 21.9 µM (inactive).
For `CNc1ccc2ncc(-c3cccc(C(=O)N(C)C)c3)n2n1`, the IC50 at Interleukin-8 [9] was 2.04 µM (active); on Interleukin-8 [10] it was > 79 µM (inactive).
As usually defined, the EC50 is the concentration giving half of the maximal effect. Turning to `c1ccc(Nc2nc(-c3ccccc3)ns2)cc1`, the IC50 on Caspase-3 [11] is 18.8 µM (active); in assay [12], 2.41 µM (active); in assay [14], 1.7 µM (active); in [15], 2.19 µM (active); on Caspase-3 [16], 7.8 µM (active); in assay [17], 1.9 µM (active). For the same compound, the results for the IC50 in assay [18] and in assay [19] were 2.5 µM (active) and 2.1 µM (active), respectively. Further, the EC50 in [13] was > 67.6 µM (inactive).

(Values after ChEMBL document CHEMBL1201862, “PubChem BioAssay data set” (2004).)
